# According to paper PMC11192711, “Automated radiosynthesis and preclinical evaluation of two new PSMA-617 derivatives radiolabelled via [^18F]AlF^2+ method” (EJNMMI Radiopharmacy and Chemistry, 2024):
# What was measured:
# PSMA = target: T1, PSMA (Homo sapiens, UniProt Q04609); assay: Competitive cell binding assay on fixed PC3-PIP cells against [^18F]F-PSMA-1007; conditions: 0.75 nM [^18F]F-PSMA-1007, 60 min room temperature, read-out: inhibition potency toward PMSA (IC50)
# T1 construct: expressed in transfected cells; host or cells: PC3-PIP cells (PC3 stably expressing PSMA), fixed with 0.2% glutaraldehyde
# T1 sequence (Q04609 whole entry): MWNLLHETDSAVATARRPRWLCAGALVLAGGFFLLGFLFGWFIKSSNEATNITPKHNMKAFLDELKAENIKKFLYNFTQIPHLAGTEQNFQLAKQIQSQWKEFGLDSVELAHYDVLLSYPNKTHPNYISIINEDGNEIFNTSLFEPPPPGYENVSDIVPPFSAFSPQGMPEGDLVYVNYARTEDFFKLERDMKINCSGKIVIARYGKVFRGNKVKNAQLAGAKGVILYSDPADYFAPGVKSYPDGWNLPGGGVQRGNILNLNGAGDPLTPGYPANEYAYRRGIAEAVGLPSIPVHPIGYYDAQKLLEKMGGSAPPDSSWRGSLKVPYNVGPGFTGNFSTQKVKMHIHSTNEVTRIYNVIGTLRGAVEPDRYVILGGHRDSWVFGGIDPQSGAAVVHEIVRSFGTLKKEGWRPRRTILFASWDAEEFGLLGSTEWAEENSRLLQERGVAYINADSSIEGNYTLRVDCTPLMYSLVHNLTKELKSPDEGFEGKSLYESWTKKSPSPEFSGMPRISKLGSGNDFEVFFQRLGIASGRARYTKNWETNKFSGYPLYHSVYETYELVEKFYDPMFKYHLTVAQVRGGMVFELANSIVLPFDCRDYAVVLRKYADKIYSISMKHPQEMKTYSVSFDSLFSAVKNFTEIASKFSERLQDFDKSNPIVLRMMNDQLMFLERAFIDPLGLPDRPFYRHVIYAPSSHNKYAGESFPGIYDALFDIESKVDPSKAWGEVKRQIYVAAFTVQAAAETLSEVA
# Method: Competitive cell binding experiments were conducted using PC3-PIP cells, [^18F]F-PSMA-1007, 300 nM PSMA-1007, and 8 different concentrations of PSMA-617-NODA (7) and PSMA-617-RESCA (9) (0, 0.01, 0.1, 1, 10, 100, 1000, 10,000 nM).
# For in vitro uptake, the PC3-PIP cell line, which is isogenic to PC3 and stably expresses PSMA(Ghosh et al. [2005]), and PC-3 cell line (PSMA negative) were used. 40.000 PC3-PIP and PC3 cells were seeded in 96-well cell culture plates and at the confluence were fixed adding 100 µl of 0.2% glutaraldehyde in PBS to medium. After 5 min incubation at 37 °C, the cells were washed six times with PBS. Then 200 µl of 0.1 M Glycine in PBS with 0.02% of sodium azide were added. After 5 min, the cells were washed 6 times with PBS and finally 250 µl of 1% BSA in PBS with 0.2% of sodium azide were added. The competitive cell binding assays were performed as follows: PC3-PIP fixed cells were incubated with [^18F]F-PSMA-1007 at a concentration of 0.75 nM in the presence of 8 different concentrations of PSMA-617-NODA (7) and PSMA-617-RESCA (9) (0, 0.01, 0.1, 1, 10, 100, 1000, 10,000 nM) and of 300 nM of PSMA-1007. […] The activity in the supernatants and cell pellets was determined using a gamma counter (1282 Compugamma CS, LKB Wallac, Finland). Cellular uptake was calculated as the percentage of radioactivity in cell pellets. […]
# [1] = Stability in final solution (analytical HPLC and radio-TLC); assay type: physicochemical; conditions: for release of [^18F]AlF^2+: in solution
# Method: Chemical and radiochemical stability in the final solution were tested by analytical HPLC and radio-TLC (Additional file 1: S37–S41); samples of the purified product were analyzed up to four hours after the end of radiosynthesis, at time intervals of two hours and storing the vial at room temperature.
# Stability in solution of [^18F]F-PSMA-617-NODA ([^18F]1) and [^18F]F-PSMA-617-RESCA ([^18F]2) were evaluated injecting in RP-HPLC (for experimental conditions, see sections “(((S)-5-((S)-2-((1R,4S)-4-((4-(4,7-bis(carboxymethyl)-1,4,7-triazonan-1-yl)butanamido)methyl)cyclohexane-1-carboxamido)-3-(naphthalen-2-yl)propanamido)-1-carboxypentyl)carbamoyl)-L-glutamic acid [^18F] aluminium fluoride ([^18F] 1)” and “(((S)-5-((S)-2-((1R,4S)-4-((2-(4-((((1R,2R)-2-(bis(carboxymethyl)amino)cyclohexyl)(carboxymethyl)amino)methyl)phenyl)acetamido)methyl)cyclohexane-1-carboxamido)-3-(naphthalen-2-yl)propanamido)-1-carboxypentyl)carbamoyl)-L-glutamic acid [18F] aluminium fluoride ([18F] 2)”) samples (20 µl) of respective radiopharmaceutical solutions at t = 0 (EOS), after 2 h and after 4 h. Moreover, ≈ 7.5 kBq of [^18F]1 or [^18F]2 solution were deposited on TLC sheet. The TLC was imaged using Cyclone® Plus Phosphor Scanner and software OptiQuant™.
# [2] = Stability in human plasma (HPLC, radio-TLC, pellet/supernatant activity); assay type: in vitro ADME; conditions: ACN precipitation
# Method: Stability in plasma was evaluated mixing aliquots of [^18F]1 or [^18F]2 solutions (10 MBq for 2 h incubation and 20 MBq for 4 h incubation samples) with 200 µL of human serum. The mixtures were incubated at 37 °C. Aliquots were taken at 2 h and 4 h. Plasma pellet was precipitated with 200 µL acetonitrile and centrifuged (13,500 rpm, 10 min). The supernatant was removed, and the activity of the supernatant solution and pellet was measured using a dose calibrator (VIK-202 Comecer). The supernatant solution was analyzed injecting in RP-HPLC (diluted 1:5 in water) and Radio-TLC as above described.
# [3] = system: Gli36ΔEGFR tumours-bearing nude mice; assay: PET/CT in vivo biodistribution and tumour uptake in orthotopic Gli36ΔEGFR glioma model; conditions: n = 3; for Bone (SUV mean) / Brain (SUV mean) / Colon (SUV mean) / Gall bladder (SUV mean) / Heart (SUV mean) / Kidney (SUV mean) / Liver (SUV mean) / Lung (SUV mean) / Muscle (SUV mean) / Salivary gland (SUV mean) / Small instestine (SUV mean): Gli36ΔEGFR female nude mice, i.v., PET/CT; for tumour-to-contralateral healthy brain ratio (tumour SUV max/contralateral SUV mean): Gli36ΔEGFR orthotopic glioma, nude mice
# Method: Subsequently, we evaluated the uptake of [^18F]F-PSMA-617-NODA ([^18F]1) and [^18F]F-PSMA-617-RESCA ([^18F]2) in an orthotopic glioma model obtained with Gli36ΔEGFR cells in female nude mice. Gli36ΔEGFR tumours-bearing nude mice (n = 3) were injected i.v. with either [^18F]F-PSMA-617-NODA or [^18F]F-PSMA-617-RESCA (~ 3.8 MBq/mouse, ~ 50 pmol for [^18F]1 and ~ 170 pmol [^18F]2). Radiotracer uptake was assessed after 10, 60 and 120 min post injection by whole-body PET/CT acquisitions. Also in nude female mice, a rapid clearance of [^18F]1 in all organs and the same kinetic observed in NSG male mice (Additional file 1: S71A and B) were confirmed. […] It is interesting to note that the uptake of [^18F]1 in kidneys decreased over time in both models (Additional file 1: S71A and B), while the uptake of [^18F]F-PSMA-1007 in NSG model and [^18F]2 in nude female mice model increased (Additional file 1: S71C and D).
# Total body biodistribution of [^18F]F-PSMA-1007, [^18F]F-PSMA-617-NODA and [^18F]F-PSMA-617-RESCA was evaluated in vivo using imaging PET/CT. [^18F]F-PSMA-617-NODA uptake was compared to that of the [^18F]F-PSMA-1007 in a PSMA positive prostate tumour xenograft model (LNCaP). [^18F]F-PSMA-617-NODA and [^18F]F-PSMA-617-RESCA uptake were also evaluated using an orthotopic glioma model (Gli36ΔEGFR).
# 5 × 10^5 Gli36ΔEGFR cells were injected in the right striatum of seven to eight weeks old female nude mice (Envigo RMS s.r.l., Italy) as previously described (Valtorta et al. [2021]). Ten days after mice underwent a T2-weighted Magnetic Resonance Imaging (MRI) using a 7 T small animal magnetic resonance scanner (Bruker, BioSpec 70/30 USR, Paravision 5.1, Germany) to confirm the growth of the tumour. Then, the same mice underwent in vivo biodistribution of [^18F]F-PSMA-617-NODA and [^18F]F-PSMA-617-RESCA, on successive but non-consecutive days, using PET/CT.
# Mice were injected into a tail vein with 3.8 ± 0.1 MBq of [^18F]F-PSMA-1007, 4.0 ± 0.2 MBq of [^18F]F-PSMA-617-NODA ([^18F]1) and 3.8 ± 0.1 MBq of [^18F]F-PSMA-617-RESCA ([^18F]2), respectively.
# Total body PET/CT acquisitions were performed using PET/CT tomographs dedicated to small animals, X-ß-CUBE (Molecubes, Gent, Belgium) after 10, 60 and 120 min from tracer injection. Each acquisition lasted 30 min and mice were maintained anesthetized (4% isoflurane in induction and 2% in maintenance in air) during acquisition.
# Image quantification analysis was performed with PMOD 4.105 software (Zurich, Switzerland). Volumes of interest (VOIs) were drawn on peripheral organs (tumour, thoracic muscle, heart, liver, kidney, salivary glands, lung, small intestine, colon, bone, gall bladder) and on the healthy brain using CT images. For the glioma model, PET/CT images were co-registered to MRI images and two different VOIs were defined: (1) a control VOI covering the healthy left striatum (volume 4 mm^3) was drawn on the axial MR images, adjusted on the other imaging planes and then copied on the PET images of each mouse; (2) a second glioma-covering VOI was drawn in the tumour-affected brain hemisphere and centered on mice lesions.
# For quantification, Standardized Uptake Value (SUV) was calculated according to the formula:
# SUV = organ concentration activity [MBq/g]/(injected activity [MBq]/animal weight [g]).
# The data were expressed as standardized-uptake-values (SUVmean and SUVmax) and as tumour-to-muscle (T/M) and tumour-to-blood (T/B) ratio in PCa model and as tumour-to-contralateral (T/Cl) ratio in glioma model.
# [4] = [18F]2, 2 h incubation in plasma, total activity incubated 3.91 MBq
# [5] = [18F]2, 4 h incubation in plasma, total activity incubated 4.62 MBq
smiles,measurement,setting,value
"O=C(O)CC[C@H](NC(=O)N[C@@H](CCCCNC(=O)[C@H](Cc1ccc2ccccc2c1)NC(=O)[C@H]1CC[C@H](CNC(=O)CCCN2CCN(CC(=O)O)CCN(CC(=O)O)CC2)CC1)C(=O)O)C(=O)O [PSMA-617-NODA, (((S)-5-((S)-2-((1R,4S)-4-((4-(4,7-bis(carboxymethyl)-1,4,7-triazonan-1-yl)butanamido)methyl)cyclohexane-1-carboxamido)-3-(naphthalen-2-yl)propanamido)-1-carboxypentyl)carbamoyl)-L-glutamic acid]",IC50,PSMA,64 nM
"O=C(O)CCC(NC(=O)NC(CCCCNC(=O)C(Cc1ccc2ccccc2c1)NC(=O)C1CCC(CNC(=O)Cc2ccc(CN(CC(=O)O)C3CCCCC3N(CC(=O)O)CC(=O)O)cc2)CC1)C(=O)O)C(=O)O.[18F][Al] [[^18F]F-PSMA-617-RESCA, (((S)-5-((S)-2-((1R,4S)-4-((2-(4-((((1R,2R)-2-(bis(carboxymethyl)amino)cyclohexyl)(carboxymethyl)amino)methyl)phenyl)acetamido)methyl)cyclohexane-1-carboxamido)-3-(naphthalen-2-yl)propanamido)-1-carboxypentyl)carbamoyl)-L-glutamic acid [^18F] aluminium fluoride]",amount of free [^18F]AlF^2+ in solution,"[1]; approximately 85 min after EOS (time of injection), supposed",< 5%
same,release of [^18F]AlF^2+,[1]; after 2 h of incubation at room temperature,4.9%
same,release of [^18F]AlF^2+,[1]; at EOS,1.2%
same,release of [^18F]AlF^2+,"[1]; room temperature, after 4 h",10%
same,Pellet activity,[2]; [4],0.45 MBq
same,Supernatant activity,[2]; [4],3.46 MBq
same,Pellet activity,[2]; [5],0.57 MBq
same,Supernatant activity,[2]; [5],4.05 MBq
same,Bone (SUV mean),[3]; 10 min p.i.,0.21 ± 0.03
same,Brain (SUV mean),[3]; 10 min p.i.,0.09 ± 0.02
same,Colon (SUV mean),[3]; 10 min p.i.,0.29 ± 0.23
same,Gall bladder (SUV mean),[3]; 10 min p.i.,3.28 ± 3.18
same,Heart (SUV mean),[3]; 10 min p.i.,0.35 ± 0.05
same,Kidney (SUV mean),[3]; 10 min p.i.,6.92 ± 1.16
same,Liver (SUV mean),[3]; 10 min p.i.,0.98 ± 0.15
same,Lung (SUV mean),[3]; 10 min p.i.,0.31 ± 0.01
same,Muscle (SUV mean),[3]; 10 min p.i.,0.19 ± 0.05
same,Salivary gland (SUV mean),[3]; 10 min p.i.,0.54 ± 0.14
same,Small instestine (SUV mean),[3]; 10 min p.i.,1.99 ± 1.44
same,Bone (SUV mean),[3]; 60 min p.i.,0.20 ± 0.07
same,Brain (SUV mean),[3]; 60 min p.i.,0.07 ± 0.02
same,Colon (SUV mean),[3]; 60 min p.i.,0.78 ± 1.05
same,Gall bladder (SUV mean),[3]; 60 min p.i.,5.22 ± 4.23
same,Heart (SUV mean),[3]; 60 min p.i.,0.17 ± 0.03
same,Kidney (SUV mean),[3]; 60 min p.i.,10.21 ± 0.80
same,Liver (SUV mean),[3]; 60 min p.i.,0.65 ± 0.22
same,Lung (SUV mean),[3]; 60 min p.i.,0.19 ± 0.04
same,Muscle (SUV mean),[3]; 60 min p.i.,0.12 ± 0.02
same,Salivary gland (SUV mean),[3]; 60 min p.i.,0.45 ± 0.10
same,Small instestine (SUV mean),[3]; 60 min p.i.,3.07 ± 1.02
same,Bone (SUV mean),[3]; 120 min p.i.,0.15 ± 0.11
same,Brain (SUV mean),[3]; 120 min p.i.,0.07 ± 0.01
same,Colon (SUV mean),[3]; 120 min p.i.,3.87 ± 5.37
same,Gall bladder (SUV mean),[3]; 120 min p.i.,5.07 ± 4.26
same,Heart (SUV mean),[3]; 120 min p.i.,0.11 ± 0.03
same,Kidney (SUV mean),[3]; 120 min p.i.,10.64 ± 1.25
same,Liver (SUV mean),[3]; 120 min p.i.,0.30 ± 0.11
same,Lung (SUV mean),[3]; 120 min p.i.,0.12 ± 0.03
same,Muscle (SUV mean),[3]; 120 min p.i.,0.11 ± 0.04
same,Salivary gland (SUV mean),[3]; 120 min p.i.,0.28 ± 0.10
same,Small instestine (SUV mean),[3]; 120 min p.i.,5.79 ± 2.07
same,tumour-to-contralateral healthy brain ratio (tumour SUV max/contralateral SUV mean),[3]; 60 min p.i.,2.93 ± 1.23
same,tumour-to-contralateral healthy brain ratio (tumour SUV max/contralateral SUV mean),[3]; 120 min p.i.,2.93 ± 0.08
